We go through 11 compounds from PubChem BioAssay (NCI).

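How tested: cells in 96-well plates exposed to compound for 48 hours at five concentrations. The concentration for full growth arrest is given as TGI.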 *1 amine or outer side, *2 acyl side, *3 side chain or, on linkers, in order; H or OH if unused. Where a SMILES comes first, the peptide text is derived from it. Bridges are numbered along the chain shown (N, C = ends). [ ]: non-standard residue; d: D form. The star is where a group is joined. ξ: configuration not given here. X34 = O=C(C(CCCCNO[*:3])N[*:1])[*:2]; Fmoc = O=C(OCC1c2ccccc2-c2ccccc21)*; ξW = NC(Cc1c[nH]c2ccccc12)C(=O)O; ξP = O=C(O)C1CCCN1

Test systems include 786-0 renal; A549 NSCLC; HCC-2998 colon; HL-60(TB) leukemia; K-562 leukemia; MALME-3M melanoma; MDA-MB-435; OVCAR-4 ovarian; SF-539 CNS; SK-MEL-2 melanoma; UACC-257 melanoma; UO-31 renal.
Common to all, as to assay: growth of human tumour cells (NCI), 48 h

Take `C[C@@]12[C@H]3CC[C@@H]1[C@H](O)C(=O)N2CC3`: the TGI with 786-0 renal, in the assay on A549 NSCLC, in the assay with HCC-2998 colon, with HL-60(TB) leukemia, in the assay with K-562 leukemia and in the assay with MALME-3M melanoma was more than 100 µM each time. Also, the TGI in the assay with MDA-MB-435, with OVCAR-4 ovarian, in the assay with SF-539 CNS, in the assay on SK-MEL-2 melanoma, in the assay on UACC-257 melanoma and in the assay with UO-31 renal was more than 100 µM throughout.

Turning to `NC(=O)CNC(=O)C1CCCN1C(=O)C1CCCCNOC(=O)CC[C@@H](NC(=O)OCC2c3ccccc3-c3ccccc32)C(=O)NC(Cc2c[nH]c3ccccc23)C(=O)N1` (stereo partly specified) (Fmoc-[dE][ξW][X34][ξP]G-NH2; ester 1-3), the TGI in the assay with 786-0 renal, in the assay with A549 NSCLC, with HCC-2998 colon, in the assay with HL-60(TB) leukemia, in the assay with K-562 leukemia and with MALME-3M melanoma was more than 100 µM throughout. Besides, the TGI in the assay on MDA-MB-435, in the assay on OVCAR-4 ovarian, in the assay with SF-539 CNS, with SK-MEL-2 melanoma, in the assay on UACC-257 melanoma and in the assay on UO-31 renal was more than 100 µM each time.

As to `CC[C@]1(Cc2ccc(OC)c(OC)c2)CN(S(=O)(=O)c2ccc(C)cc2)C[C@@H]1OC(C)=O`, the TGI in the assay with 786-0 renal, in the assay on A549 NSCLC, in the assay on HCC-2998 colon, in the assay on HL-60(TB) leukemia, with K-562 leukemia and with MALME-3M melanoma was more than 100 µM throughout. Moreover, the TGI in the assay on MDA-MB-435, in the assay with OVCAR-4 ovarian, with SF-539 CNS, in the assay with SK-MEL-2 melanoma, in the assay on UACC-257 melanoma and with UO-31 renal was more than 100 µM each time.

As to `NC(=O)N/N=C(\Cc1nc2ccc(Cl)cc2[nH]c1=O)C(=O)Nc1ccc(Cl)cc1Cl`, the TGI in the assay on 786-0 renal, with A549 NSCLC, in the assay with HCC-2998 colon, in the assay with HL-60(TB) leukemia, with K-562 leukemia and in the assay with MALME-3M melanoma was more than 100 µM each time. Further, the TGI with MDA-MB-435, in the assay with OVCAR-4 ovarian, in the assay with SF-539 CNS, with SK-MEL-2 melanoma, in the assay with UACC-257 melanoma and with UO-31 renal was more than 100 µM each time.

Regarding `NC(C(F)(F)F)(C(F)(F)F)P(=O)(Cc1ccccc1)Cc1ccccc1`, the TGI in the assay on 786-0 renal, in the assay with A549 NSCLC, with HCC-2998 colon, in the assay on HL-60(TB) leukemia, with K-562 leukemia and with MALME-3M melanoma was more than 100 µM throughout. Moreover, the TGI in the assay on MDA-MB-435, in the assay on OVCAR-4 ovarian, in the assay on SF-539 CNS, in the assay on SK-MEL-2 melanoma, in the assay on UACC-257 melanoma and in the assay on UO-31 renal was more than 100 µM in each case.

Turning to `COc1cccc(-c2cc(=O)c3ccccc3o2)c1N`, the TGI in the assay with 786-0 renal is more than 100 µM; in the assay with A549 NSCLC, more than 100 µM; in the assay on HCC-2998 colon, more than 100 µM; with HL-60(TB) leukemia, more than 100 µM; with K-562 leukemia, more than 100 µM; in the assay on MALME-3M melanoma it was more than 56 µM. The TGI in the assay with MDA-MB-435, in the assay on OVCAR-4 ovarian, with SF-539 CNS, in the assay with SK-MEL-2 melanoma, in the assay on UACC-257 melanoma and with UO-31 renal was more than 100 µM throughout.

In the case of `OCCCCCNc1c2ccccc2nc2ccccc12`, the TGI in the assay with 786-0 renal was 12.9 µM; in the assay on A549 NSCLC, more than 29.7 µM; with HCC-2998 colon it was 3.36 µM; with HL-60(TB) leukemia it was more than 39 µM; in the assay on K-562 leukemia it was 14.2 µM; in the assay with MALME-3M melanoma, 4.15 µM. In addition, the TGI in the assay on MDA-MB-435 is 8.5 µM; with OVCAR-4 ovarian, 11.4 µM; in the assay with SF-539 CNS, 9.05 µM; with SK-MEL-2 melanoma, 7.43 µM; in the assay on UACC-257 melanoma it was 4.77 µM; in the assay with UO-31 renal it was 10 µM.

For the compound `CCOc1cc(NC(C)=O)ccc1C(=O)NNC(=O)c1ccccc1OC(C)=O`, the TGI with 786-0 renal was more than 90.3 µM; in the assay with A549 NSCLC, more than 100 µM; in the assay on HCC-2998 colon, more than 100 µM; in the assay on HL-60(TB) leukemia, more than 42.2 µM; in the assay with K-562 leukemia, more than 40.3 µM; with MALME-3M melanoma, more than 100 µM. For the same compound, the TGI was more than 100 µM in the assay with MDA-MB-435; more than 52.4 µM in the assay on OVCAR-4 ovarian; more than 80.7 µM in the assay with SF-539 CNS; more than 100 µM in the assay on SK-MEL-2 melanoma; 52.5 µM in the assay on UACC-257 melanoma; more than 100 µM in the assay on UO-31 renal.

For `O=C(Nc1ccc(Br)cc1)c1c(-c2ccccc2)c2ccc(O)cc2oc1=O`, the TGI in the assay with 786-0 renal, with HCC-2998 colon, with HL-60(TB) leukemia, with K-562 leukemia, with MALME-3M melanoma and with MDA-MB-435 was more than 10 µM in each case. For the same compound, the TGI in the assay with OVCAR-4 ovarian, in the assay on SF-539 CNS, with SK-MEL-2 melanoma, with UACC-257 melanoma and in the assay with UO-31 renal was more than 10 µM in each case.

Regarding `COCOC1/C=C/CCCC#C[C@H](C)C(=O)CC1` (stereo partly specified), the TGI with 786-0 renal came to 13.5 µM; in the assay with A549 NSCLC, 21.1 µM; in the assay with HCC-2998 colon it was 28.9 µM; in the assay on HL-60(TB) leukemia, 5.12 µM; in the assay on K-562 leukemia, 5.28 µM; in the assay on MALME-3M melanoma, 19.4 µM. Moreover, the TGI with MDA-MB-435 stood at 19.5 µM; in the assay on OVCAR-4 ovarian, 22.3 µM; in the assay with SF-539 CNS, 30.4 µM; in the assay on SK-MEL-2 melanoma it was 31.3 µM; in the assay with UACC-257 melanoma, 17.8 µM; in the assay with UO-31 renal, 28 µM.

Consider `COc1ccccc1Nc1nc(N)nc(N)c1N=O`, for which the TGI in the assay on 786-0 renal, in the assay on A549 NSCLC, in the assay with HCC-2998 colon, with HL-60(TB) leukemia, with K-562 leukemia and in the assay with MALME-3M melanoma was more than 100 µM in each case. In addition, the TGI in the assay on MDA-MB-435, in the assay on OVCAR-4 ovarian, in the assay on SF-539 CNS, with SK-MEL-2 melanoma, in the assay on UACC-257 melanoma and in the assay on UO-31 renal was more than 100 µM in each case.
